{"source": "paper PMC4710522", "about": "“A Novel Triazolopyridine-Based Spleen Tyrosine Kinase Inhibitor That Arrests Joint Inflammation” (PLoS ONE, 2016)", "assay_in_all_cases": "SelectScreen kinase assay", "format_in_all_cases": "biochemical", "key": {"Abl_E255K_h": {"molecular_target": "T1, Abl_E255K_h (Homo sapiens, UniProt P00519, E255K)", "T1 construct": "purchased Life Technologies (Invitrogen) SelectScreen, Z'-LYTE / Adapta", "T1 sequence (P00519 whole entry E255K)": "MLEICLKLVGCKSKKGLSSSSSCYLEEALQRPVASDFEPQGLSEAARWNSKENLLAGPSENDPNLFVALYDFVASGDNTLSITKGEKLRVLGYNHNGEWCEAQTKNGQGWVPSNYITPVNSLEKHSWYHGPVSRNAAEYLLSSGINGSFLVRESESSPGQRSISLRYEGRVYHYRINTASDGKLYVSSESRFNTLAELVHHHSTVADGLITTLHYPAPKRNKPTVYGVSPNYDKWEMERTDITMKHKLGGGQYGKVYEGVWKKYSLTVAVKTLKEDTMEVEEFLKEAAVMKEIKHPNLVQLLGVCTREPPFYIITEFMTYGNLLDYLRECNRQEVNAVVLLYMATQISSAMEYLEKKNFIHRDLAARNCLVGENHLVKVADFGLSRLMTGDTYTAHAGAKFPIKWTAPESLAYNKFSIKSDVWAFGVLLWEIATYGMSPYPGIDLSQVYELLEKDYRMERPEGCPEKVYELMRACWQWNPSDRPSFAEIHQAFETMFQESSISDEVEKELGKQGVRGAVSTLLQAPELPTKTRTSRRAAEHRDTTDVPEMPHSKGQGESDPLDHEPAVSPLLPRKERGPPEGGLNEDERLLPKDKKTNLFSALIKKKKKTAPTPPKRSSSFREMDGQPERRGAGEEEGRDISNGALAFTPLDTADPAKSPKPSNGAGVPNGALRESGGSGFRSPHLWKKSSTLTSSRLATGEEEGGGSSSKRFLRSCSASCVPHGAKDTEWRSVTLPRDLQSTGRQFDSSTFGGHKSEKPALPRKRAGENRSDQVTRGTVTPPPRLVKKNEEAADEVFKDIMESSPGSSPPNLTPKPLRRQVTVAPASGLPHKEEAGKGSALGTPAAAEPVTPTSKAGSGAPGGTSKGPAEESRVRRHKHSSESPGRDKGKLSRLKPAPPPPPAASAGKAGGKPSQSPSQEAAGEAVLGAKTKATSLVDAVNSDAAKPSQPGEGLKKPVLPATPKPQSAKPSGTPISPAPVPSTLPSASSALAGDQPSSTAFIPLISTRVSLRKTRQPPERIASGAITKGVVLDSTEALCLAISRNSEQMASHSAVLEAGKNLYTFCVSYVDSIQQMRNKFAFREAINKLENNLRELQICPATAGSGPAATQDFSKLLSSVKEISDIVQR", "details": "KM ATP, read-out: % control", "how_it_was_run": "(§1)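 Z'-Lyte or Adapta format; compound fixed at 3 µM; ATP at KM, 10 µM or 100 µM as indicated; read-out % control relative to uninhibited DMSO wells.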"}, "Bmx_h": {"molecular_target": "T2, Bmx_h (Homo sapiens, UniProt P51813)", "T2 construct": "purchased Life Technologies (Invitrogen) SelectScreen, Z'-LYTE / Adapta", "details": "KM ATP, read-out: % control", "how_it_was_run": "as §1"}, "CAMK1_h": {"molecular_target": "T3, CAMK1_h (Homo sapiens, UniProt Q14012)", "T3 construct": "purchased Life Technologies (Invitrogen) SelectScreen, Z'-LYTE / Adapta", "details": "10 µM ATP, read-out: % control", "how_it_was_run": "as §1"}, "CDK2_cyclinA_h": {"molecular_target": "T4, CDK2_cyclinA_h (Homo sapiens, UniProt P24941)", "T4 construct": "purchased Life Technologies (Invitrogen) SelectScreen, Z'-LYTE / Adapta", "details": "KM ATP, read-out: % control", "how_it_was_run": "as §1"}, "CaMKII-alpha_h": {"molecular_target": "T5, CaMKII-alpha_h (Homo sapiens, UniProt Q9UQM7)", "T5 construct": "purchased Life Technologies (Invitrogen) SelectScreen, Z'-LYTE / Adapta", "details": "KM ATP, read-out: % control", "how_it_was_run": "as §1"}, "DAPK1_h": {"molecular_target": "T6, DAPK1_h (Homo sapiens, UniProt P53355)", "T6 construct": "purchased Life Technologies (Invitrogen) SelectScreen, Z'-LYTE / Adapta", "details": "KM ATP, read-out: % control", "how_it_was_run": "as §1"}, "DYRK1B_h": {"molecular_target": "T7, DYRK1B_h (Homo sapiens, UniProt Q9Y463)", "T7 construct": "purchased Life Technologies (Invitrogen) SelectScreen, Z'-LYTE / Adapta", "details": "KM ATP, read-out: % control", "how_it_was_run": "as §1"}, "EphA4_h": {"molecular_target": "T8, EphA4_h (Homo sapiens, UniProt P54764)", "T8 construct": "purchased Life Technologies (Invitrogen) SelectScreen, Z'-LYTE / Adapta", "details": "KM ATP, read-out: % control", "how_it_was_run": "as §1"}, "EphA5_h": {"molecular_target": "T9, EphA5_h (Homo sapiens, UniProt P54756)", "T9 construct": "purchased Life Technologies (Invitrogen) SelectScreen, Z'-LYTE / Adapta", "details": "KM ATP, read-out: % control", "how_it_was_run": "as §1"}, "Fms_h": {"molecular_target": "Fms_h (Homo sapiens, UniProt P07333)", "sequence (P07333 20-972)": "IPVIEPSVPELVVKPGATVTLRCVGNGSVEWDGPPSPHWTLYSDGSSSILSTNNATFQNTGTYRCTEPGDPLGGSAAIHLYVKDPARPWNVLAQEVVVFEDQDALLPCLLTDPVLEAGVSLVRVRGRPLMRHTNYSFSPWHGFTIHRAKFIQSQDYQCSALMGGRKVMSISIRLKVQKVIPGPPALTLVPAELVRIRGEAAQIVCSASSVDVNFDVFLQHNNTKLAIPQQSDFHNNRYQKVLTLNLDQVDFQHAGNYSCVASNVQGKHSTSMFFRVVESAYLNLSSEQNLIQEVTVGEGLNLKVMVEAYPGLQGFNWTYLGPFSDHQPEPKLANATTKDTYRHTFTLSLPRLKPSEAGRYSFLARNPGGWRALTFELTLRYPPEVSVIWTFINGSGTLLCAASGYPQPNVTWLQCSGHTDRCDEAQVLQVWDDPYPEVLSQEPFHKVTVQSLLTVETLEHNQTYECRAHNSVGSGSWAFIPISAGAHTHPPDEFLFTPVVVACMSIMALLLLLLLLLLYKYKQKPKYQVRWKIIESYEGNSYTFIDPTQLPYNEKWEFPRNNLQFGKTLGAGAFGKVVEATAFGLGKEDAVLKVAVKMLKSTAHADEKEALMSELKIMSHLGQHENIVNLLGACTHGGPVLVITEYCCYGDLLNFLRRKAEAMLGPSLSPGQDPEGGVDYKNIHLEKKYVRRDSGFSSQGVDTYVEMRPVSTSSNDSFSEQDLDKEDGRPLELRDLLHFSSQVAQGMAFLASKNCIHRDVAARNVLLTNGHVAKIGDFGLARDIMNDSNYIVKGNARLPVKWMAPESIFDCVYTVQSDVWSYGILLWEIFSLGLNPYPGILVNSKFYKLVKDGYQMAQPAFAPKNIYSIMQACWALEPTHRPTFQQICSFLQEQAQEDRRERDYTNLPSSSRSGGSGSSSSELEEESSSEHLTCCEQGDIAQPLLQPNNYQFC", "how_it_was_run": "as §1"}, "GRK7_h": {"molecular_target": "T10, GRK7_h (Homo sapiens, UniProt Q8WTQ7)", "T10 construct": "purchased Life Technologies (Invitrogen) SelectScreen, Z'-LYTE / Adapta", "details": "KM ATP, read-out: % control", "how_it_was_run": "as §1"}, "HIPK1_h": {"molecular_target": "T11, HIPK1_h (Homo sapiens, UniProt Q86Z02)", "T11 construct": "purchased Life Technologies (Invitrogen) SelectScreen, Z'-LYTE / Adapta", "details": "KM ATP, read-out: % control", "how_it_was_run": "as §1"}, "JAK2_h": {"molecular_target": "JAK2_h (Homo sapiens, UniProt O60674)", "sequence (O60674 whole entry)": "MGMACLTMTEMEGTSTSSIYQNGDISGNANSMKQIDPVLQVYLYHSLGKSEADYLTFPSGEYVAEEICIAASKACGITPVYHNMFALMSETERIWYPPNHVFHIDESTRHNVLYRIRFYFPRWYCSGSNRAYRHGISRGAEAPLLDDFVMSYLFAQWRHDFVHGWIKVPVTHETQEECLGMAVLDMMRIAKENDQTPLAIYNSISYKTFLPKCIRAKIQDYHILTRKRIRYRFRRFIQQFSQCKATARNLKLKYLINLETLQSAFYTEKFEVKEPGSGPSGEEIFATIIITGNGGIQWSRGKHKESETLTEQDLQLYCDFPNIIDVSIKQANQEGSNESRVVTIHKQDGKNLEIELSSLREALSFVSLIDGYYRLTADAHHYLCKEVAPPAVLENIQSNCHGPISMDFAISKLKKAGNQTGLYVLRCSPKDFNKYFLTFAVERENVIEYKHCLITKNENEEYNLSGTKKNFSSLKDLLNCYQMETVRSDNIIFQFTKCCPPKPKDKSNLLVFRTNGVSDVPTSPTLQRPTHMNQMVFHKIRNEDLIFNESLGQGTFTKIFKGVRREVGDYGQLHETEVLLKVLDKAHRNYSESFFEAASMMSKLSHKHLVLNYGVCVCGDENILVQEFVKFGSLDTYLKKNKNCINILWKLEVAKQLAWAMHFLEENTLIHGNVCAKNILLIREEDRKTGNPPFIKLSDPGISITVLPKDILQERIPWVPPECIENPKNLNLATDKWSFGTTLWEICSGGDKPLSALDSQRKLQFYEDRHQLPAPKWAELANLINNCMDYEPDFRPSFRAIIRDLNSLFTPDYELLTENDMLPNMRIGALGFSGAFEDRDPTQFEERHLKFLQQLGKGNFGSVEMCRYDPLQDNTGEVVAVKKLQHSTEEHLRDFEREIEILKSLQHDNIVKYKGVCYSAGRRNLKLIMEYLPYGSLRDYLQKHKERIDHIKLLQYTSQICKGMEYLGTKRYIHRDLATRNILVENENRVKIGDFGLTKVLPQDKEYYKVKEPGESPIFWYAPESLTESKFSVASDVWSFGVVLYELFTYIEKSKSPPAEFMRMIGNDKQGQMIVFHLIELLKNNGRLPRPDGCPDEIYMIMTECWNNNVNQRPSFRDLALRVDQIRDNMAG", "how_it_was_run": "as §1"}, "JNK3_h": {"molecular_target": "T12, JNK3_h (Homo sapiens, UniProt P53779)", "T12 construct": "purchased Life Technologies (Invitrogen) SelectScreen, Z'-LYTE / Adapta", "T12 sequence (P53779 whole entry)": "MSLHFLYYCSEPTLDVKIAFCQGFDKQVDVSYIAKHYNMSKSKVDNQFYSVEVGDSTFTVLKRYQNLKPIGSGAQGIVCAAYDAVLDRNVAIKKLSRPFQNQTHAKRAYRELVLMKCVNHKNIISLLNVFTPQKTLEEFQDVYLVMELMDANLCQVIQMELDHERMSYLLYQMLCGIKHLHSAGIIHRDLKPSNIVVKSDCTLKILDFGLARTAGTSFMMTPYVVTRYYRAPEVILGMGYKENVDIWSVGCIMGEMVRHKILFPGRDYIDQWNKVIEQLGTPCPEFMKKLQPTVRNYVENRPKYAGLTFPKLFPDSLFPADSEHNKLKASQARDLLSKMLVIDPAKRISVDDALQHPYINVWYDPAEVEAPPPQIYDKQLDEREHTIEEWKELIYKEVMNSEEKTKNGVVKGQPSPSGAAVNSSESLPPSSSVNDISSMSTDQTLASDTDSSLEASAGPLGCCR", "details": "100 µM ATP, read-out: % control", "how_it_was_run": "as §1"}, "KDR_h": {"molecular_target": "KDR_h (Homo sapiens, UniProt P35968)", "sequence (P35968 20-1356)": "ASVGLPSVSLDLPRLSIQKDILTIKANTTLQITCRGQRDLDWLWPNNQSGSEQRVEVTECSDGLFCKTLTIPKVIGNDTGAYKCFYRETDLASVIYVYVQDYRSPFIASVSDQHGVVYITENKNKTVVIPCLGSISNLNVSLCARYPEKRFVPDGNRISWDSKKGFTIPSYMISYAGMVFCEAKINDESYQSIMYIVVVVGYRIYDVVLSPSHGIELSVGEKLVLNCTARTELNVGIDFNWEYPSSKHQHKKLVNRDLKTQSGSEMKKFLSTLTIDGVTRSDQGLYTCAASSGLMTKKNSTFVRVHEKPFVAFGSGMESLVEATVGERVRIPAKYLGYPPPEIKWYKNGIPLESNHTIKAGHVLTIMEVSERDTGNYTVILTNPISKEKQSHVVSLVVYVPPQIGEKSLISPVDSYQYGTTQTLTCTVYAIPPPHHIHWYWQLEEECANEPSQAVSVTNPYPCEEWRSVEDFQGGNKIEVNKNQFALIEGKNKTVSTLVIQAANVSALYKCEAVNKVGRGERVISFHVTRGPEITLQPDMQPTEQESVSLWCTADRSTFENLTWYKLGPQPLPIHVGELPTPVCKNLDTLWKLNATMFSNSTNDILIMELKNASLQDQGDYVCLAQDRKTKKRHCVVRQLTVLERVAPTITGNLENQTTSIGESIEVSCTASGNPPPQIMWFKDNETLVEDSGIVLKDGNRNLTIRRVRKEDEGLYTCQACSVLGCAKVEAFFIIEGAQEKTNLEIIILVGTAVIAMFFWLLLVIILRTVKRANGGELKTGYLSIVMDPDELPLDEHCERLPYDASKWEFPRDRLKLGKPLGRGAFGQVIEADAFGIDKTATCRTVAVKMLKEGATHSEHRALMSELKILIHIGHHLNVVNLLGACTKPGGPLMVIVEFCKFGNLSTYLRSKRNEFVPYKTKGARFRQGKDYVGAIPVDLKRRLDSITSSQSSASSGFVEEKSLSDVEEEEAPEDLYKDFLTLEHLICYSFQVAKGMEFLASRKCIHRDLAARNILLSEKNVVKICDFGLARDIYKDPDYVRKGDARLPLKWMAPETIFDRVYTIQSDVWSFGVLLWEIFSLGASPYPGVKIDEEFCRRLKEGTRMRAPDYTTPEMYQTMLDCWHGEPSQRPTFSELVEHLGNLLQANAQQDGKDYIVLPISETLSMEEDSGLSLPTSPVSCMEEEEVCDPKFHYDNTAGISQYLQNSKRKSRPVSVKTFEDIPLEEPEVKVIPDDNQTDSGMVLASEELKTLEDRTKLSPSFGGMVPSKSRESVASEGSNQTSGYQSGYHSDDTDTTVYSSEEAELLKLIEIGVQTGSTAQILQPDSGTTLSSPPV", "how_it_was_run": "as §1"}, "MARK1_h": {"molecular_target": "T13, MARK1_h (Homo sapiens, UniProt Q9P0L2)", "T13 construct": "purchased Life Technologies (Invitrogen) SelectScreen, Z'-LYTE / Adapta", "details": "KM ATP, read-out: % control", "how_it_was_run": "as §1"}, "MEK1_h": {"molecular_target": "T14, MEK1_h (Homo sapiens, UniProt Q02750)", "T14 construct": "purchased Life Technologies (Invitrogen) SelectScreen, Z'-LYTE / Adapta", "details": "100 µM ATP, read-out: % control", "how_it_was_run": "as §1"}, "Met_h": {"molecular_target": "T15, Met_h (Homo sapiens, UniProt P08581)", "T15 construct": "purchased Life Technologies (Invitrogen) SelectScreen, Z'-LYTE / Adapta", "details": "KM ATP, read-out: % control", "how_it_was_run": "as §1"}, "NEK1_h": {"molecular_target": "T16, NEK1_h (Homo sapiens, UniProt Q96PY6)", "T16 construct": "purchased Life Technologies (Invitrogen) SelectScreen, Z'-LYTE / Adapta", "details": "KM ATP, read-out: % control", "how_it_was_run": "as §1"}, "NEK4_h": {"molecular_target": "T17, NEK4_h (Homo sapiens, UniProt P51957)", "T17 construct": "purchased Life Technologies (Invitrogen) SelectScreen, Z'-LYTE / Adapta", "details": "KM ATP, read-out: % control", "how_it_was_run": "as §1"}, "NEK6_h": {"molecular_target": "T18, NEK6_h (Homo sapiens, UniProt Q9HC98)", "T18 construct": "purchased Life Technologies (Invitrogen) SelectScreen, Z'-LYTE / Adapta", "details": "KM ATP, read-out: % control", "how_it_was_run": "as §1"}, "PAK1_h": {"molecular_target": "T19, PAK1_h (Homo sapiens, UniProt Q13153)", "T19 construct": "purchased Life Technologies (Invitrogen) SelectScreen, Z'-LYTE / Adapta", "details": "KM ATP, read-out: % control", "how_it_was_run": "as §1"}, "PAK2_h": {"molecular_target": "T20, PAK2_h (Homo sapiens, UniProt Q13177)", "T20 construct": "purchased Life Technologies (Invitrogen) SelectScreen, Z'-LYTE / Adapta", "details": "KM ATP, read-out: % control", "how_it_was_run": "as §1"}, "PAK7_h": {"molecular_target": "T21, PAK7_h (Homo sapiens, UniProt Q9P286)", "T21 construct": "purchased Life Technologies (Invitrogen) SelectScreen, Z'-LYTE / Adapta", "details": "KM ATP, read-out: % control", "how_it_was_run": "as §1"}, "PDGFR-beta_h": {"molecular_target": "T22, PDGFR-beta_h (Homo sapiens, UniProt P09619)", "T22 construct": "purchased Life Technologies (Invitrogen) SelectScreen, Z'-LYTE / Adapta", "details": "KM ATP, read-out: % control", "how_it_was_run": "as §1"}, "PKC-epsilon_h": {"molecular_target": "T23, PKC-epsilon_h (Homo sapiens, UniProt Q02156)", "T23 construct": "purchased Life Technologies (Invitrogen) SelectScreen, Z'-LYTE / Adapta", "details": "KM ATP, read-out: % control", "how_it_was_run": "as §1"}, "PRAK_h": {"molecular_target": "T24, PRAK_h (Homo sapiens, UniProt Q8IW41)", "T24 construct": "purchased Life Technologies (Invitrogen) SelectScreen, Z'-LYTE / Adapta", "details": "KM ATP, read-out: % control", "how_it_was_run": "as §1"}, "PRK1_h": {"molecular_target": "T25, PRK1_h (Homo sapiens, UniProt Q16512)", "T25 construct": "purchased Life Technologies (Invitrogen) SelectScreen, Z'-LYTE / Adapta", "details": "KM ATP, read-out: % control", "how_it_was_run": "as §1"}, "PrKX_h": {"molecular_target": "T26, PrKX_h (Homo sapiens, UniProt P51817)", "T26 construct": "purchased Life Technologies (Invitrogen) SelectScreen, Z'-LYTE / Adapta", "details": "KM ATP, read-out: % control", "how_it_was_run": "as §1"}, "Rse_h": {"molecular_target": "T27, Rse_h (Homo sapiens, UniProt Q06418)", "T27 construct": "purchased Life Technologies (Invitrogen) SelectScreen, Z'-LYTE / Adapta", "details": "KM ATP, read-out: % control", "how_it_was_run": "as §1"}, "Rsk3_h": {"molecular_target": "T28, Rsk3_h (Homo sapiens, UniProt Q15349)", "T28 construct": "purchased Life Technologies (Invitrogen) SelectScreen, Z'-LYTE / Adapta", "details": "KM ATP, read-out: % control", "how_it_was_run": "as §1"}, "SIK2_h": {"molecular_target": "T29, SIK2_h (Homo sapiens, UniProt Q9H0K1)", "T29 construct": "purchased Life Technologies (Invitrogen) SelectScreen, Z'-LYTE / Adapta", "details": "KM ATP, read-out: % control", "how_it_was_run": "as §1"}, "TBK1_h": {"molecular_target": "T30, TBK1_h (Homo sapiens, UniProt Q9UHD2)", "T30 construct": "purchased Life Technologies (Invitrogen) SelectScreen, Z'-LYTE / Adapta", "details": "KM ATP, read-out: % control", "how_it_was_run": "as §1"}, "p38-gamma_h": {"molecular_target": "T31, p38-gamma_h (Homo sapiens, UniProt P53778)", "T31 construct": "purchased Life Technologies (Invitrogen) SelectScreen, Z'-LYTE / Adapta", "details": "KM ATP, read-out: % control", "how_it_was_run": "as §1"}, "[1]": {"details": "3 µM, KM ATP, read-out: % control"}, "[2]": {"details": "10-point dose-response, commercial vendor"}}}
{"compound": "c1cc(CC2CCOCC2)n2nc(Nc3ccc4c(NC5CCOCC5)n[nH]c4c3)nc2c1", "note": "[CC-509, [3-(2H-3,4,5,6-tetrahydropyran-4-ylamino)(1H-indazol-6-yl)][5-(2H-3,4,5,6-tetrahydropyran-4-ylmethyl)(2H-1,2,4-triazolo[1,5-a]pyridin-2-yl)]amine]", "values": [{"measurement": "remaining activity at 3 µM", "setting": "Abl_E255K_h", "result": 26, "unit": "%"}, {"measurement": "remaining activity at 3 µM", "setting": "Bmx_h", "result": 52, "unit": "%"}, {"measurement": "remaining activity at 3 µM", "setting": "CAMK1_h", "result": 86, "unit": "%"}, {"measurement": "remaining activity at 3 µM", "setting": "CDK2_cyclinA_h", "result": 64, "unit": "%"}, {"measurement": "remaining activity at 3 µM", "setting": "CaMKII-alpha_h", "result": 80, "unit": "%"}, {"measurement": "remaining activity at 3 µM", "setting": "DAPK1_h", "result": 104, "unit": "%"}, {"measurement": "remaining activity at 3 µM", "setting": "DYRK1B_h", "result": 95, "unit": "%"}, {"measurement": "remaining activity at 3 µM", "setting": "EphA4_h", "result": 76, "unit": "%"}, {"measurement": "remaining activity at 3 µM", "setting": "EphA5_h", "result": 89, "unit": "%"}, {"measurement": "remaining activity at 3 µM", "setting": "Fms_h; [1]", "result": 2, "unit": "%"}, {"measurement": "IC50", "setting": "Fms_h; [2]", "result": 8.61, "unit": "nM"}, {"measurement": "remaining activity at 3 µM", "setting": "GRK7_h", "result": 94, "unit": "%"}, {"measurement": "remaining activity at 3 µM", "setting": "HIPK1_h", "result": 94, "unit": "%"}, {"measurement": "remaining activity at 3 µM", "setting": "JAK2_h; [1]", "result": 4, "unit": "%"}, {"measurement": "IC50", "setting": "JAK2_h; [2]", "result": 18.9, "unit": "nM"}, {"measurement": "remaining activity at 3 µM", "setting": "JNK3_h", "result": 94, "unit": "%"}, {"measurement": "remaining activity at 3 µM", "setting": "KDR_h; [1]", "result": 3, "unit": "%"}, {"measurement": "IC50", "setting": "KDR_h; [2]", "result": 185, "unit": "nM"}, {"measurement": "remaining activity at 3 µM", "setting": "MARK1_h", "result": 48, "unit": "%"}, {"measurement": "remaining activity at 3 µM", "setting": "MEK1_h", "result": 65, "unit": "%"}, {"measurement": "remaining activity at 3 µM", "setting": "Met_h", "result": 66, "unit": "%"}, {"measurement": "remaining activity at 3 µM", "setting": "NEK1_h", "result": 73, "unit": "%"}, {"measurement": "remaining activity at 3 µM", "setting": "NEK4_h", "result": 78, "unit": "%"}, {"measurement": "remaining activity at 3 µM", "setting": "NEK6_h", "result": 99, "unit": "%"}, {"measurement": "remaining activity at 3 µM", "setting": "PAK1_h", "result": 94, "unit": "%"}, {"measurement": "remaining activity at 3 µM", "setting": "PAK2_h", "result": 85, "unit": "%"}, {"measurement": "remaining activity at 3 µM", "setting": "PAK7_h", "result": 86, "unit": "%"}, {"measurement": "remaining activity at 3 µM", "setting": "PDGFR-beta_h", "result": 43, "unit": "%"}, {"measurement": "remaining activity at 3 µM", "setting": "PKC-epsilon_h", "result": 100, "unit": "%"}, {"measurement": "remaining activity at 3 µM", "setting": "PRAK_h", "result": 91, "unit": "%"}, {"measurement": "remaining activity at 3 µM", "setting": "PRK1_h", "result": 60, "unit": "%"}, {"measurement": "remaining activity at 3 µM", "setting": "PrKX_h", "result": 95, "unit": "%"}, {"measurement": "remaining activity at 3 µM", "setting": "Rse_h", "result": 53, "unit": "%"}, {"measurement": "remaining activity at 3 µM", "setting": "Rsk3_h", "result": 33, "unit": "%"}, {"measurement": "remaining activity at 3 µM", "setting": "SIK2_h", "result": 6, "unit": "%"}, {"measurement": "remaining activity at 3 µM", "setting": "TBK1_h", "result": 10, "unit": "%"}, {"measurement": "remaining activity at 3 µM", "setting": "p38-gamma_h", "result": 95, "unit": "%"}]}
